Article PMC9930781, “Design, synthesis, docking, and anticancer evaluations of new thiazolo[3,2-a] pyrimidines as topoisomerase II inhibitors” (Journal of Enzyme Inhibition and Medicinal Chemistry, 2023)
Like-named read-outs stand apart in the source and are kept apart here.

Key:
[1] = tested on: A549 non-small cell lung cancer (NSCLC) cell line; assay: MTT cytotoxicity assay, A549; conditions: Homo sapiens, A549, 24 h
Experimental: (§1) The MTT test was used to evaluate the inhibitory effects of the substances on cell proliferation in the aforementioned cell lines. This colorimetric assay targets the mitochondrial succinate dehydrogenase of living cells to change yellow tetrazolium bromide (MTT) to a purple formazan derivative. […] Then, the cells were incubated for 24 h and exposed to various chemical concentrations. 20 μL of a 5 mg/mL MTT solution was applied after a 24-h drug treatment period and incubated for 4 h. To dissolve the produced purple formazan, each well receives 100 μL of dimethyl sulfoxide (DMSO). […] The formula for calculating the relative percentage of cell viability was (A570 of treated samples/A570 of the untreated sample) × 100.

[2] = tested on: A498 renal cell carcinoma cell line; assay: MTT cytotoxicity assay, A498; conditions: Homo sapiens, A498, 24 h
Experimental: as §1

[3] = biological target: human topoisomerase II (Homo sapiens, UniProt P11388); assay: DNA Topo II inhibition (kDNA decatenation) assay; assay type: biochemical; conditions: for IC50: kDNA decatenation, four concentrations 0.1-100 µM, mean ± SD of two independent assays
Chain of human topoisomerase II (P11388 whole entry): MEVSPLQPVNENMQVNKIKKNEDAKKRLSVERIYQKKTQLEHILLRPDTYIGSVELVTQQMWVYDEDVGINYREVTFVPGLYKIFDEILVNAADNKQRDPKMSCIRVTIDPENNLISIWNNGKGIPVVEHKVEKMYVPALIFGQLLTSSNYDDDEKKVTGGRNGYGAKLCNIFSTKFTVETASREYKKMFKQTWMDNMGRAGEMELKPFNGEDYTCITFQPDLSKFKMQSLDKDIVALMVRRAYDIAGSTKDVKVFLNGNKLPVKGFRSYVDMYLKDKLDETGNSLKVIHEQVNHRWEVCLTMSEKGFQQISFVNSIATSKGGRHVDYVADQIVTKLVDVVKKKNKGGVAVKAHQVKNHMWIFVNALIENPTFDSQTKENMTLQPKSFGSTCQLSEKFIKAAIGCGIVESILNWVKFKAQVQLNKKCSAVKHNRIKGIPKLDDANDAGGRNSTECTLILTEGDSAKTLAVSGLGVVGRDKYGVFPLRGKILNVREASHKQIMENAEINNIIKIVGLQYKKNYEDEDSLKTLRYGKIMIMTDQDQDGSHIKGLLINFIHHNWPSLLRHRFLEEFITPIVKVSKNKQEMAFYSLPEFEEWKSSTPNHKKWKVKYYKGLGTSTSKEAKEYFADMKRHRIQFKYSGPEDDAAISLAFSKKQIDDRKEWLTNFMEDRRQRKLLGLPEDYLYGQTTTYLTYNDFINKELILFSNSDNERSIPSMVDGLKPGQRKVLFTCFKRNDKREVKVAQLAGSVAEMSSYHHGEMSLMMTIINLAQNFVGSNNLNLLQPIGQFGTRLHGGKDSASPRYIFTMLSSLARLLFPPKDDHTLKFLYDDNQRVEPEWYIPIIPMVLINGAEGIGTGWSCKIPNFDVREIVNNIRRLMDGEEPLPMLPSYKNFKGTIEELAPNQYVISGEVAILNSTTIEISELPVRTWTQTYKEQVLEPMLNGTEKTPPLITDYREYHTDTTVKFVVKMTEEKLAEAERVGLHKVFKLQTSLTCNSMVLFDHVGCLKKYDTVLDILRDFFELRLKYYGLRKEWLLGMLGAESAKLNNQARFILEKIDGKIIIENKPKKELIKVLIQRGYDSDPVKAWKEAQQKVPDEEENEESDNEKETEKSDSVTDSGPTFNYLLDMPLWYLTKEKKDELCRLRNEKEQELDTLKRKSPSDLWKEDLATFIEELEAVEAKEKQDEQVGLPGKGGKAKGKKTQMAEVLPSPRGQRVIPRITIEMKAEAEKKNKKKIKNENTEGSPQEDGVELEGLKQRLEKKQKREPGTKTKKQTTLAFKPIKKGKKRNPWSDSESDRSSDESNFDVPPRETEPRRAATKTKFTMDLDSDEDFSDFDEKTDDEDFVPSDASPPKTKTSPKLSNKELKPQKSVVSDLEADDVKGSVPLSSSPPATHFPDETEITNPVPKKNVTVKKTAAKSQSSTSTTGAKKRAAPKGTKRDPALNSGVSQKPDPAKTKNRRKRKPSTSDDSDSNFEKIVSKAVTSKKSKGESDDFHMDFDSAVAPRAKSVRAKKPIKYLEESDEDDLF
Experimental: The ATP-dependent decatenation of kinetoplast DNA (kDNA) obtained from Crithidia fasciculata, which consists of a network of numerous minicircles (2.3 Kb) and some maxicircles, was used to measure topoisomerase II inhibition. Reactions took place in 20 μL and comprised topoisomerase II, 200–300 ng of kDNA, and 120 mM KCl with 50 mM Tris-HCl, pH 8, 10 mM MgCl2, 0.5 mM ATP, and 0.5 mM dithiothreitol. In preliminary tests, the quantity of topoisomerase II (5 units) was changed to decatenate almost 100% of the kDNA under these assay circumstances. […] The products in the reaction mixture were separated by a 1% agarose gel after the reaction was complete and then could be seen after being stained with ethidium bromide (0.2 μg/mL). The gels were run at 100 V for about 40 min and visualised under UV transillumination.
This assay is based on the fact that human Topo II can decatenate interlinked double-stranded DNA molecules.

[4] = tested on: MCF7 breast cancer cell line; assay: MTT cytotoxicity assay, MCF7; conditions: MCF7, MTT
Experimental: as §1
The newly prepared compounds were screened against three cancer cell lines: namely, breast cancer cell line MCF7, non-small cell lung cancer (NSCLC) cell line A549, and renal cancer cell line A498, using the MTT colorimetric assay.

[5] = read-out: Cytotoxicity IC50 A549± SD, MTT, A549, 24 h treatment, mean ± SD of two independent assays
[6] = read-out: Cytotoxicity IC50 A498± SD, MTT, A498, 24 h treatment, mean ± SD of two independent assays

Compound	melting point	%inh TOPO II ([3]; conc 0.1 (μM))	%inh TOPO II ([3]; conc 1 (μM))	%inh TOPO II ([3]; conc 10 (μM))	%inh TOPO II ([3]; conc 100 (μM))	IC50 [3]	IC50 [1, 5]	IC50 [2, 6]	also measured
CCOC(=O)C1=C(C)N=C2SC=C(N)N2C1c1ccc(OC)cc1OC (stereo not shown) [Compound 2, ethyl 3-amino-5–(2,4-dimethoxyphenyl)-7-methyl-5H-thiazolo[3,2-a] pyrimidine-6-carboxylate]	172 to 174 °C	–	–	–	–	–	0.023 µM	0.332 µM	–
CCOC(=O)C1=C(C)N=C2SCC(=O)N2C1c1ccc(OC)cc1OC (stereo not shown) [Compound 3a, Ethyl 5–(2,4-dimethoxyphenyl)-7-methyl-3-oxo-3,5-dihydro-5H-thiazolo[3,2-a] pyrimidine-6-carboxylate]	195 to 197 °C	–	–	–	–	–	0.093 µM	0.073 µM	–
CCOC(=O)C1=C(C)N=c2sc(=Cc3ccc(OC)cc3)c(=O)n2C1c1ccc(OC)cc1OC (stereo not shown) [Compound 3b, Ethyl 5–(2,4-dimethoxyphenyl)-2–(4-methoxybenzylidene)-7-methyl-3-oxo-2,3-dihydro-5H-thiazolo[3,2-a]pyrimidine-6-carboxylate]	175 to 177 °C	19%	30%	48%	80%	6.14 ± 0.36 µM	0.024 µM	0.046 µM	–
CCOC(=O)C1=C(C)N=c2sc(=Cc3ccc(OC)cc3OC)c(=O)n2C1c1ccc(OC)cc1OC (stereo not shown) [Compound 3c, Ethyl 2–(2,4-dimethoxybenzylidene)-5–(2,4-dimethoxyphenyl)-7-methyl-3-oxo-2,3-dihydro-5H-thiazolo[3,2-a]pyrimidine-6-carboxylate]	–	31%	45%	63%	89%	1.39 ± 0.08 µM	0.019 µM	0.009 µM	–
CCOC(=O)C1=C(C)N=c2sc(=Cc3cc(OC)c(OC)c(OC)c3)c(=O)n2C1c1ccc(OC)cc1OC (stereo not shown) [Compound 3d, Ethyl 5–(2,4-dimethoxyphenyl)-7-methyl-3-oxo-2–(3,4,5-trimethoxybenzylidene)-2,3-dihydro-5H-thiazolo[3,2-a]pyrimidine-6-carboxylate]	190 to 192 °C	28%	41%	59%	85%	2.21 ± 0.13 µM	0.012 µM	0.004 µM	–
CCOC(=O)C1=C(C)N=C2SC=C(NC(=O)c3ccc(Cl)cc3)N2C1c1ccc(OC)cc1OC (stereo not shown) [Compound 4a, Ethyl 3–(4-chlorobenzamido)-5–(2,4-dimethoxyphenyl)-7-methyl-5H-thiazolo[3,2-a]pyrimidine-6-carboxylate]	150 to 152 °C	–	–	–	–	–	–	–	–
COc1cccc2c1C(=O)c1c(O)c3c(c(O)c1C2=O)C[C@@](O)(C(=O)CO)C[C@@H]3O[C@H]1C[C@H](N)[C@H](O)[C@H](C)O1 [Doxorubicin, reference compound]	–	30%	51%	77%	90%	–	–	–	IC50 ([1]; read-out: Cytotoxicity IC50 A549± SD): 0.013 µM; IC50 ([2]; read-out: Cytotoxicity IC50 A498± SD): 0.007 µM
Ethyl 5–(2,4-dimethoxyphenyl)-7-methyl-3-((2-oxo-2-(piperazin-1-yl)ethyl)amino)-5H-thiazolo[3,2-a]pyrimidine-6-carboxylate [Compound 6c]	–	–	–	–	–	–	–	–	% viability ([4]; 0.4ug): 77.067%; % viability ([4]; 1.6ug): 70.045%; % viability ([4]; 6.3ug): 60.702%; % viability ([4]; 25ug): 51.13%; % viability ([4]; 100ug): 43.771%
ethyl 4–(2,4-dimethoxyphenyl)-6-methyl-2-thioxo-1,2,3,6-tetrahydropyrimidine-5-carboxylate [Compound 1]	–	–	–	–	–	–	–	–	% viability ([4]; 0.4ug): 81.002%; % viability ([4]; 1.6ug): 67.624%; % viability ([4]; 6.3ug): 61.271%; % viability ([4]; 25ug): 51.07%; % viability ([4]; 100ug): 44.533%

Second part, led by results:

melting point	%inh TOPO II ([3]; conc 0.1 (μM))	%inh TOPO II ([3]; conc 1 (μM))	%inh TOPO II ([3]; conc 10 (μM))	%inh TOPO II ([3]; conc 100 (μM))	IC50 [3]	Compound	IC50 [1, 5]	IC50 [2, 6]	also measured
150 to 152 °C	–	–	–	–	–	CCOC(=O)C1=C(C)N=C2SC=C(NC(=O)CCl)N2C1c1ccc(OC)cc1OC (stereo not shown) [Compound 5, ethyl 3–(2-chloroacetamido)-5–(2,4-dimethoxyphenyl)-7-methyl-5H-thiazolo[3,2-a]pyrimidine-6-carboxylate]	–	–	–
–	26%	42%	67%	83%	1.88 ± 0.11 µM	CCOC(=O)C1=C(C)N=C2SC=C(NC(=O)CN3CCN(CC)CC3)N2C1c1ccc(OC)cc1OC (stereo not shown) [Compound 6a]	0.008 µM	0.002 µM	–
–	28%	44%	67%	88%	1.51 ± 0.09 µM	CCOC(=O)C1=C(C)N=C2SC=C(NC(=O)CN3CCOCC3)N2C1c1ccc(OC)cc1OC (stereo not shown) [Compound 6b]	0.006 µM	0.01 µM	–
–	20%	34%	57%	84%	3.56 ± 0.21 µM	CCOC(=O)C1=C(C)N=C2SC=C(NC(=O)Nc3ccc(Cl)cc3)N2C1c1ccc(OC)cc1OC (stereo not shown) [Compound 7a, Ethyl 3–(3-(4-chlorophenyl)ureido)-5–(2,4-dimethoxyphenyl)-7-methyl-5H-thiazolo[3,2-a]pyrimidine-6-carboxylate]	–	–	–
–	28%	52%	71%	88%	1.05 ± 0.06 µM	CCOC(=O)C1=C(C)N=C2SC=C(NC(=O)Nc3ccc(Cl)c(C(F)(F)F)c3)N2C1c1ccc(OC)cc1OC (stereo not shown) [Compound 7b, Ethyl 3–(3-(4-chloro-3-(trifluoromethyl)phenyl)ureido)-5–(2,4-dimethoxyphenyl)-7-methyl-5H-thiazolo[3,2-a]pyrimidine-6-carboxylate]	0.019 µM	0.009 µM	–
